Key:
human MET kinase L1195V = molecular target: T1, human MET kinase L1195V (Homo sapiens, UniProt P08581, L1195V); experiment: c-Met Enzyme Assay, L1195V mutant; assay type: binding; conditions: averaged IC50; L1195V 10 nM; 60-minute incubation at 22° C.
T1 construct: GST-tagged recombinant human MET kinase domain; purchased Signal Chem
Description: (§1) The affinity of compound binding to wild type and mutant human MET kinases was measured using Invitrogen's LanthaScreen™ Eu Kinase Binding technology. Briefly, GST-tagged recombinant human MET kinase domain from Signal Chem (see Table 8 below for concentration in assay) was incubated with 50 nM Alexa-Fluor® Tracer 236 (Invitrogen Cat No. PR9078A) and 2 nM Europium-anti-GST (Invitrogen Cat. No. A15116) along with test compound in a buffer consisting of 25 mM HEPES, pH 7.4, 10 mM MgCl2, 0.01% Triton X-100, 1mM DTT, and 2% DMSO. Compounds were typically prepared in a three-fold serial dilution in DMSO and added to the assay to give the appropriate final concentration. After a 60-minute incubation at 22° C., the reaction was measured using a PerkinElmer EnVision multimode plate reader via TR-FRET dual wavelength detection, and the percent of control (POC) calculated using a ratiometric emission factor. […] The POC values were fit to a 4 parameter logistic curve and the IC50 value is point where the curve crosses 50 POC.

[1] = molecular target: T2, MET (wt) GST-tagged recombinant human MET kinase domain (Homo sapiens, UniProt P08581); experiment: c-Met Enzyme Assay, wild type (LanthaScreen Eu Kinase Binding); conditions: averaged IC50; MET (wt) 10 nM; 60-minute incubation at 22° C.; read-out: SigChem WT IC50
T2 construct: GST-tagged recombinant human MET kinase domain; purchased Signal Chem
Description: as §1

[2] = molecular target: T3, GST-tagged recombinant human TYRO3 kinase domain (Homo sapiens, UniProt Q06418); experiment: TYRO3 Enzyme Assay (LanthaScreen Eu Kinase Binding); conditions: averaged IC50; TYRO3 5 nM; 60-minute incubation at 22° C.; TR-FRET
T3 construct: GST-tagged recombinant human TYRO3 kinase domain; purchased Carna PR7480A
T3 sequence (Q06418 518-790 limits assumed): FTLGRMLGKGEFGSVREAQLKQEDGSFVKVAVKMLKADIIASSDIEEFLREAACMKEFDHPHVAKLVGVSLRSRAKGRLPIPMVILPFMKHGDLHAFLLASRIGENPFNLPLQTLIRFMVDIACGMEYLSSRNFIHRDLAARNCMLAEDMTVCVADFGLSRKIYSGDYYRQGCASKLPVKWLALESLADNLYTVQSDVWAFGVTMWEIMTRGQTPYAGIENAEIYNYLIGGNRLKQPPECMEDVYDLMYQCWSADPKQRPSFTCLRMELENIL
Description: Compounds disclosed herein were screened for their ability to inhibit TYRO3 kinase using Invitrogen's LanthaScreenTM Eu Kinase Binding technology. GST-tagged recombinant human TYRO3 kinase domain from Carna (5 nM; Cat. No. P[…]) was incubated with 20 nM Alexa-Fluor® Tracer 236 (P[…]) and 2 nM Europium-anti-GST (Cat. No. A15116) along with test compound in a buffer consisting of 25 mM HEPES, pH 7.4, 10 mM MgCl2, 0.01% Triton X-100, and 2% DMSO. Compounds are typically prepared in a threefold serial dilution in DMSO and added to the assay to give the appropriate final concentration. After a 60-minute incubation at 22° C., the reaction was measured using a PerkinElmer EnVision multimode plate reader via TR-FRET dual wavelength detection, and the percent of control (POC) calculated using a ratiometric emission factor. […] The POC values were fit to a 4 parameter logistic curve and the IC50 value is point where the curve crosses 50 POC.

human MET kinase Y1230C = molecular target: T4, human MET kinase Y1230C (Homo sapiens, UniProt P08581, Y1230C); experiment: c-Met Enzyme Assay, Y1230C mutant; assay type: binding; conditions: averaged IC50; Y1230C 2 nM; 60-minute incubation at 22° C.; read-out: Y1230 C IC50
T4 construct: GST-tagged recombinant human MET kinase domain; purchased Signal Chem
Description: as §1

human MET kinase Y1230H = molecular target: T5, human MET kinase Y1230H (Homo sapiens, UniProt P08581, Y1230H); experiment: c-Met Enzyme Assay, Y1230H mutant; assay type: binding; conditions: averaged IC50; Y1230H 5 nM; 60-minute incubation at 22° C.; read-out: Y1230 H IC50
T5 construct: GST-tagged recombinant human MET kinase domain; purchased Signal Chem
Description: as §1

[3] = molecular target: T6, His-tagged recombinant human MER cytoplasmic domain (Homo sapiens, UniProt Q12866); experiment: MER Enzyme Assay (LanthaScreen Eu Kinase Binding); conditions: averaged IC50; MER 5 nM; 60-minute incubation at 22° C.; TR-FRET
T6 construct: His-tagged recombinant human MER cytoplasmic domain
T6 sequence (Q12866 527-999 limits assumed): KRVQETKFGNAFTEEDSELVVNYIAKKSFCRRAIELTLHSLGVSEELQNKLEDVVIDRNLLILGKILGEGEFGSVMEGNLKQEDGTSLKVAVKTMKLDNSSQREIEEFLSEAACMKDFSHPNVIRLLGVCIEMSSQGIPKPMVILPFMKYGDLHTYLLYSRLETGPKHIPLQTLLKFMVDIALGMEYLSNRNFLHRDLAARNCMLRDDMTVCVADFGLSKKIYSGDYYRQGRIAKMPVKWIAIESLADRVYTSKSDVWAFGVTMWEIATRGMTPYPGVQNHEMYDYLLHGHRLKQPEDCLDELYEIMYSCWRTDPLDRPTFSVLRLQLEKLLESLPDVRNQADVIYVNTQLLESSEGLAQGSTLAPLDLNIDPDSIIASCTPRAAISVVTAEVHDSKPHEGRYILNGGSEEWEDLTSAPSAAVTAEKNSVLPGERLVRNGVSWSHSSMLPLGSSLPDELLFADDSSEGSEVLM
Description: Compounds disclosed herein were screened for their ability to inhibit […] kinase using Invitrogen's LanthaScreen™Eu Kinase Binding technology. His-tagged recombinant human MER cytoplasmic domain (5 nM) was incubated with 20 nM Alexa-Fluor® Tracer 236 (PR9078A), 2 nM biotinylated anti-His (Cat. No. M4408), and 2 nM europium-labeled Streptavidin (Cat. No. PV5899) along with test compound in a buffer consisting of 25 mM HEPES, pH 7.4, 10 mM MgCl 2, 0.01% Triton X-100, and 2% DMSO. Compounds were typically prepared in a threefold serial dilution in DMSO and added to the assay to give the appropriate final concentration. After a 60-minute incubation at 22° C., the reaction was measured using a PerkinElmer EnVision multimode plate reader via TR-FRET dual wavelength detection, and the percent of control (POC) was calculated using a ratiometric emission factor. […] The POC values are fit to a 4 parameter logistic curve and the IC50 value is point where the curve crosses 50 POC.

T5 sequence (P08581 1078-1345 Y1230H): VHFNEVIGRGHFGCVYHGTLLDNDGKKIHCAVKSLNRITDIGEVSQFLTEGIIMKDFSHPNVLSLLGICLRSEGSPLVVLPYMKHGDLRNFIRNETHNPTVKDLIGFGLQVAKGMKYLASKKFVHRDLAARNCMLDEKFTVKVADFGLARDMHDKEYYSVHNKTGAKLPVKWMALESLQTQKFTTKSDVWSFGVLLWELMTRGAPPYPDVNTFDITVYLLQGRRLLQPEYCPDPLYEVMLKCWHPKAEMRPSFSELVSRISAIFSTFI
T4 sequence (P08581 1078-1345 Y1230C): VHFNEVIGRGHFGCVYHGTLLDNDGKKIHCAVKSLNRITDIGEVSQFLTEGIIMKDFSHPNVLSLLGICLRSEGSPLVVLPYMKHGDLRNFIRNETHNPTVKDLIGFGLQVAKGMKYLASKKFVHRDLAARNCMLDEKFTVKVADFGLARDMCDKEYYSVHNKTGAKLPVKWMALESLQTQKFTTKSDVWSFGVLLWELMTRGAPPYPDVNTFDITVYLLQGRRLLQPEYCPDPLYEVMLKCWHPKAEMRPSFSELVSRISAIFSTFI
T2 sequence (P08581 1078-1345 limits assumed): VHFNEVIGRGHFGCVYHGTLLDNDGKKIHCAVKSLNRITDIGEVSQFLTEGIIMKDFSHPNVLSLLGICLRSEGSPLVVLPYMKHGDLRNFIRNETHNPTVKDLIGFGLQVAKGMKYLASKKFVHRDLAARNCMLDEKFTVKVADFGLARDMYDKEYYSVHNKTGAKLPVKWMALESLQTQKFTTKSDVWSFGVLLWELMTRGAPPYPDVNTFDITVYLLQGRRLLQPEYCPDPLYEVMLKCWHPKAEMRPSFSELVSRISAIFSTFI
T1 sequence (P08581 1078-1345 L1195V limits assumed): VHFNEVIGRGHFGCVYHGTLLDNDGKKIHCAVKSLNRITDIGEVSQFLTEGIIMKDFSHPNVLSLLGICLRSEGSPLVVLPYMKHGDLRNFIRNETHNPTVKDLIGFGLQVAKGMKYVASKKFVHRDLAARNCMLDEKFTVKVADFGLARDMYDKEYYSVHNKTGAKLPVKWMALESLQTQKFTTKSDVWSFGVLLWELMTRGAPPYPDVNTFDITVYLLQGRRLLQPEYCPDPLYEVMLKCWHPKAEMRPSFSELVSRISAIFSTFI

IC50 (human MET kinase L1195V) [nM]	IC50 [1] [nM]	IC50 [2] [nM]	IC50 (human MET kinase Y1230C) [nM]	IC50 (human MET kinase Y1230H) [nM]	IC50 [3] [nM]	Compound
58.1	5.2	6	7.7	9.9	3	COc1cc(-c2cn(C(C)C)cc(C(=O)Nc3ccc(Oc4ccnc5cc(OC)c(OC)cc45)cn3)c2=O)ccc1F [Example 20, N-(5-((6,7-dimethoxyquinolin-4yl)oxy)pyridin-2-yl)-5-(4-fluoro-3-methoxyphenyl)-1-isopropyl-4-oxo-1,4-dihydropyridine-3-carboxamide]
77.7	13.5	26	20.4	51.3	10	COc1cc2nccc(Oc3ccc(NC(=O)c4cn(C(C)C)cc(-c5ccc(F)c(Cl)c5)c4=O)nc3)c2cc1OC [Example 21, 5-(3-chloro-4-fluorophenyl)-N-(5-((6,7-dimethoxyquinolin-4-yl)oxy)pyridin-2-yl)-1-isopropyl-4-oxo-1,4-dihydropyridine-3-carboxamide]
17.7	1.8	14	2	4.3	3	CNC(=O)Cn1cc(C(=O)Nc2ccc(Oc3ccnc4cc(OC)c(OC)cc34)cn2)c(=O)c(-c2ccc(F)cc2)c1 [Example 22]
39.6	2.8	14	14.5	7.8	3	COc1cc2nccc(Oc3ccc(NC(=O)c4cn(CC(=O)N(C)C)cc(-c5ccc(F)cc5)c4=O)nc3)c2cc1OC [Example 23, N-(5-((6,7-dimethoxyquinolin-4yl)oxy)pyridin-2-yl)-1-(2-(dimethylamino)-2-oxoethyl)-5-(4-fluorophenyl)-4-oxo-1,4-dihydropyridine-3-carboxamide]
92	7.8	54	14.3	22.7	5	COc1cc2nccc(Oc3ccc(NC(=O)c4cn(CC(=O)N(C)C)cc(-c5ccc(F)c(F)c5)c4=O)nc3)c2cc1OC [Example 24, 5-(3,4-difluorophenyl)-N-(5-((6,7-dimethoxyquinolin-4-yl)oxy)pyridin-2-yl)-1-(2-(dimethylamino)-2-oxoethyl)-4-oxo-1,4-dihydropyridine-3-carboxamide]

More lines, now with the values behind:

Compound	IC50 (human MET kinase L1195V) [nM]	IC50 [1] [nM]	IC50 [2] [nM]	IC50 (human MET kinase Y1230C) [nM]	IC50 (human MET kinase Y1230H) [nM]	IC50 [3] [nM]
COc1cc2nccc(Oc3ccc(NC(=O)c4cn(C5CCOCC5)cc(-c5ccc(F)cc5)c4=O)nc3)c2cc1OC [Example 12, N-(5((6,7-dimethoxyquinolin-4-yl)oxy)pyridin-2-yl)-5-(4-fluorophenyl)-4-oxo-1-(tetrahydro-2H-pyran-4-yl)-1,4-dihydropyridine-3-carboxamide]	33	5.4	23	5.5	5.4	4
COc1cc2nccc(Oc3ccc(NC(=O)c4cn(CC(=O)N(C)C)cc(-c5ccc(F)cc5F)c4=O)nc3)c2cc1OC [Example 13, 5-(2,4-difluorophenyl)-N-(5((6,7-dimethoxyquinolin-4-yl)oxy)pyridin-2-yl)-1-(2-(dimethylamino)-2-oxoethyl)-4-oxo-1,4-dihydropyridine-3-carboxamide]	83.8	3.4	22	3.3	5.7	5
COc1cc2nccc(Oc3ccc(NC(=O)c4cn(CC(=O)N5CCCC5)cc(-c5ccc(F)cc5F)c4=O)nc3)c2cc1OC [Example 14]	187	7.7	129	5.5	22.3	12
COc1cc2nccc(Oc3ccc(NC(=O)c4cn(CC(=O)N5CCOCC5)cc(-c5ccc(F)cc5F)c4=O)nc3)c2cc1OC [Example 15, 5-(2,4-difluorophenyl)-N-(5-((6,7-dimethoxyquinolin-4-yl)oxy)pyridin-2-yl)-1-(2-morpholino-2-oxoethyl)-4-oxo-1,4-dihydropyridine-3-carboxamide]	61.4	33.8	292	66.8	37.5	29
CCC(CC)n1cc(C(=O)Nc2ccc(Oc3ccnc4cc(OC)c(OC)cc34)cn2)c(=O)c(-c2ccc(F)cc2F)c1 [Example 16, 5-(2,4-difluorophenyl)-N-(5-((6,7-dimethoxyquinolin-4yl)oxy)pyridin-2-yl)-4-oxo-1-(pentan-3-yl)-1,4-dihydropyridine-3-carboxamide]	34.6	6.1	11	6.1	7.7	9
CCCC(CCC)n1cc(C(=O)Nc2ccc(Oc3ccnc4cc(OC)c(OC)cc34)cn2)c(=O)c(-c2ccc(F)cc2F)c1 [Example 17, 5-(2,4-difluorophenyl)-N-(5-((6,7-dimethoxyquinolin-4yl)oxy)pyridin-2-yl)-1-(heptan-4-yl)-4-oxo-1,4-dihydropyridine-3-carboxamide]	82.6	17.8	76	15.5	26.9	52
COc1cc2nccc(Oc3ccc(NC(=O)c4cn(C(C)C)cc(-c5ccc(F)cc5Cl)c4=O)nc3)c2cc1OC [Example 18, 5-(2-chloro-4-fluorophenyl)-N-(5-((6,7-dimethoxyquinolin-4-yl)oxy)pyridin-2-yl)-1-isopropyl-4-oxo-1,4-dihydropyridine-3-carboxamide]	21.4	2.7	4	2.4	4.6	2
COc1cc2nccc(Oc3ccc(NC(=O)c4cn(C(C)C)cc(-c5ccc(F)cc5C)c4=O)nc3)c2cc1OC [Example 19, N-(5-((6,7-dimethoxyquinolin-4yl)oxy)pyridin-2-yl)-5-(4-fluoro-2-methylphenyl)-1-isopropyl-4-oxo-1,4-dihydropyridine-3-carboxamide]	10	1.8	4	2	2.7	2

Source: patent publication US20200216416A1, “QUINOLINE COMPOUNDS AS INHIBITORS OF TAM AND MET KINASES” (Array BioPharma Inc., priority 2019, published 2020)
